In article PMC6711789 (Bioorganic & medicinal chemistry letters, 2019):
Marks after values point to notes of the source that are not given here.

Key:
[1] = Cytotoxicity against HepG2 cells using CellTiter Glo; format: cell-based; conditions: human
[2] = test system: CYP1A2, 2C9, 2C19, 2D6, 3A4; experiment: CYP inhibition; format: in vitro ADME; conditions: measured against CYP1A2, 2C9, 2C19, 2D6, 3A4
[3] = test system: S. aureus ATCC 8235-4 (MSSA); experiment: Broth microdilution MIC against S. aureus ATCC 8235-4; format: cell-based; conditions: lowest concentration preventing visible growth
[4] = test system: COXI and SDH-A mitochondrial proteins; format: cell-based; conditions: read-out: Mt protein synthesis inhibition IC50

SMILES	EC50 [1]	CYP inhibition [2]	MIC [3]	IC50 [4]
CC(=O)NC[C@H]1CN(c2ccc(N3CCOCC3)c(F)c2)C(=O)O1 [Linezolid, linezolid, reference compound]	> 30 µM	>100 µM	–	–
CC(=O)NC[C@H]1CN(c2ccc(N3CCOC4(CCCNC4)C3)c(F)c2)C(=O)O1 (stereo partly drawn) [Compound 25]	–	–	> 32^b μg/mL	–
CC(=O)NC[C@H]1CN(c2ccc(N3CCOC(C)(CCN(C)C)C3)c(F)c2)C(=O)O1 (stereo partly drawn) [Compound 23]	–	–	> 32^b μg/mL	–
CC(=O)NC[C@H]1CN(c2ccc(N3CCOC4(CCNC4)C3)c(F)c2)C(=O)O1 (stereo partly drawn) [Compound 27]	–	–	> 32^b μg/mL	–
CC(=O)NC[C@H]1CN(c2ccc(N3CCOC4(CCN(C)C4)C3)c(F)c2)C(=O)O1 (stereo partly drawn) [Compound 17]	–	–	> 32^b μg/mL	–
CC(=O)NC[C@H]1CN(c2ccc(N3CCO[C@]4(CCCOC4)C3)c(F)c2)C(=O)O1 [Compound 19b]	> 30 µM	>100 µM	–	> 30 µM
CC(=O)NC[C@H]1CN(c2ccc(N3CCO[C@@]4(CCCOC4)C3)c(F)c2)C(=O)O1 [Compound 19a]	> 30 µM	> 100 µM	–	30 µM
